Results: ChEMBL document CHEMBL4477263, “Nature-inspired design of tetraindoles: Optimization of the core structure and evaluation of structure-activity relationship” (Bioorg Med Chem Lett, 2016)

Tested on: MDA-MB-231
Test: Antiproliferative activity against human MDA-MB-231 cells after 48 hrs by MTT assay
Format: functional, cell-based
Details: MDA-MB-231, 48 h

Row | IC50 | SMILES
1 | 8 µM | Cc1cc(C(c2c[nH]c3ccc(O)cc23)c2c[nH]c3ccc(O)cc23)c(C)cc1C(c1c[nH]c2ccc(O)cc12)c1c[nH]c2ccc(O)cc12
2 | 0.56 µM | Oc1ccc2[nH]cc(C(c3c(F)c(F)c(C(c4c[nH]c5ccc(O)cc45)c4c[nH]c5ccc(O)cc45)c(F)c3F)c3c[nH]c4ccc(O)cc34)c2c1
3 | 1.5 µM | Oc1ccc2[nH]cc(C(c3c[nH]c4ccc(O)cc34)c3c4c(c(C(c5c[nH]c6ccc(O)cc56)c5c[nH]c6ccc(O)cc56)c5ccccc35)CCCC4)c2c1

The remaining lines, values behind:

Row | SMILES | IC50
4 | Oc1ccc2[nH]cc(C(c3ccc4ccc(C(c5c[nH]c6ccc(O)cc56)c5c[nH]c6ccc(O)cc56)cc4c3)c3c[nH]c4ccc(O)cc34)c2c1 | > 20 µM
5 | Oc1ccc2[nH]cc(C(/C=C/c3ccc(/C=C/C(c4c[nH]c5ccc(O)cc45)c4c[nH]c5ccc(O)cc45)cc3)c3c[nH]c4ccc(O)cc34)c2c1 | 2 µM
6 | Oc1ccc2[nH]cc(C(c3ccc4cc(C(c5c[nH]c6ccc(O)cc56)c5c[nH]c6ccc(O)cc56)ccc4c3)c3c[nH]c4ccc(O)cc34)c2c1 | > 20 µM
7 | Oc1ccc2[nH]cc(C(c3c[nH]c4ccc(O)cc34)c3cccc4c(C(c5c[nH]c6ccc(O)cc56)c5c[nH]c6ccc(O)cc56)cccc34)c2c1 | 4 µM
8 | Oc1ccc2[nH]cc(C(Cc3ccc(CC(c4c[nH]c5ccc(O)cc45)c4c[nH]c5ccc(O)cc45)cc3)c3c[nH]c4ccc(O)cc34)c2c1 | > 20 µM
